Assay results published in patent US20050049186A1, “Peptides mimicking the biological activity of steroid hormones and their uses” (priority 2000, published 2005).
Like-named read-outs stand apart in the source and are kept apart here. One block for each molecule: values may come before it. Peptide text beside a SMILES is read from it.

Tests used:
ER α = target: T1, ER α (Homo sapiens, UniProt P03372); assay: Receptor binding assay for estrogen receptor alpha; settings: for recognition of / binding activity to estrogen receptor α: summary of Tables 3 to 5
T1 sequence (P03372 1-595): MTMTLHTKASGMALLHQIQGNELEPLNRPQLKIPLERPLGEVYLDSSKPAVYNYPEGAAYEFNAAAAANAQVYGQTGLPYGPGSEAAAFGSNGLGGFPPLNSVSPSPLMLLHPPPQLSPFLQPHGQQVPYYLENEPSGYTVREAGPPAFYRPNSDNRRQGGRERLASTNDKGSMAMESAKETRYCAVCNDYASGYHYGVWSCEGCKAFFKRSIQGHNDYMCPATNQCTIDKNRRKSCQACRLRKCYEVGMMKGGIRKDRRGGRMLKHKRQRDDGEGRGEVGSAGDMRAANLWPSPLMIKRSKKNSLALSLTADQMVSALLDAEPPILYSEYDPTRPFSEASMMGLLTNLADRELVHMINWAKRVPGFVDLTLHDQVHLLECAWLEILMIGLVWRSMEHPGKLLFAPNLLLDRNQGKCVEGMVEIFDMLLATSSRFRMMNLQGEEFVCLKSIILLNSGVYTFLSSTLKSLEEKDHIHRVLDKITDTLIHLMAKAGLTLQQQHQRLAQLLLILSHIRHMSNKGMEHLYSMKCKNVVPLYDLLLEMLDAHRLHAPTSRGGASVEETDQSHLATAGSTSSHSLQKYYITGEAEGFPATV

[1] = target: anti-estradiol mAb clone 15; assay: Competitive immunoassay: inhibition of binding of labeled E2 (estradiol ovalbumin europium conjugate) to anti-E2 clone 15; design: species or system mouse; settings: for IC50: Table 5, estradiol ovalbumin europium conjugate; for inhibition of the binding of estradiol ovalbumin europium conjugate to anti-E2 mAb clone 15 relative to peptides 1 and 2: compared with the linear or cyclic peptides 1 and 2; for inhibition of binding of estradiol ovalbumin europium conjugate to anti-estradiol mAb clone 15: text summary of Table 4
Description: […]. The linear peptide 1 is 15-amino acid long. We further explored the possibility whether smaller peptides derived from peptide 1 may have antibody binding activity and receptor binding activity. In order to find out the minimum amino acid sequence required in the linear peptide 1 for antibody and receptor binding, several peptides with varying length of from 4 to 14 amino acids long were synthesized, and were first evaluated in terms of binding to anti-estradiol (E2) mAb clone 15. The peptides showing similar or better antibody binding activity than the linear peptide 1 were further evaluated in terms of binding to ERα and β.

ER β = ER β (Homo sapiens, UniProt Q92731); assay: Receptor binding assay for estrogen receptor beta; settings: for IC50 to ERβ / IC50: Table 5; for recognition of / binding activity to estrogen receptor β: summary of Tables 3 to 5; for IC50: read-out: IC50 to ERβ
Sequence of ER β (Q92731 whole entry, species assumed): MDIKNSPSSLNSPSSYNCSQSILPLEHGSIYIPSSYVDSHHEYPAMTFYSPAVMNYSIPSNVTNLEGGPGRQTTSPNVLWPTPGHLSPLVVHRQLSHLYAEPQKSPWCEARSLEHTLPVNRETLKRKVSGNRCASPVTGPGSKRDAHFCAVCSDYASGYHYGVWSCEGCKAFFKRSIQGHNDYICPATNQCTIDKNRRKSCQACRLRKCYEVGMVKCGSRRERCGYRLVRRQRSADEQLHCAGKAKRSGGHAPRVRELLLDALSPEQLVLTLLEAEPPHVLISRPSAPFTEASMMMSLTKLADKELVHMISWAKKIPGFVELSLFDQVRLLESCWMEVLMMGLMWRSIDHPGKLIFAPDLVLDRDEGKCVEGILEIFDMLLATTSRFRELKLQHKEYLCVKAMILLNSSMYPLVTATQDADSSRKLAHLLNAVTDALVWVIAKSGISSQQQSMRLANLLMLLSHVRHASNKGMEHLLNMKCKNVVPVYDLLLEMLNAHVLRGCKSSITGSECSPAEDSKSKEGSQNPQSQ

[2] = system: creatine kinase (CK) specific activity in rat tissues; assay: Stimulation of creatine kinase specific activity in rat tissues in vivo
Experimental: The control goups received 0.5 ml saline containing 0.5% ethanol or tris-saline alone. The various organs were assayed for CK activity four hours after treatment.

[3] = Table 5, read-out: IC50 to ER α
[4] = immature female rats, four hours after treatment, estradiol 5 μg/rat, peptides and raloxifene 0.5 mg/rat, mean ± S.E.M., n=15

Molecule: N=C(N)NCCC[C@H](NC(=O)[C@@H](N)CCCCN)C(=O)N[C@@H](Cc1c[nH]c2ccccc12)C(=O)N[C@@H](Cc1ccccc1)C(=O)N[C@@H](Cc1ccccc1)C(=O)N[C@@H](CCC(=O)O)C(=O)O [Peptide 44, KRWFFE] (H-KRWFFE-OH)
IC50 (ER α; [3]): 400000 nM | recognition of / binding activity to estrogen receptor α (ER α): recognized | IC50 [1]: 35 nM | inhibition of the binding of estradiol ovalbumin europium conjugate to anti-E2 mAb clone 15 relative to peptides 1 and 2 [1]: one and half order of magnitude better | IC50 (ER β): 400000 nM | recognition of / binding activity to estrogen receptor β (ER β): recognized

Molecule: CC(C)C[C@@H]1NC(=O)[C@H](C)NC(=O)[C@@H]2CCCN2C(=O)[C@H](CC(C)C)NC(=O)[C@H](CCC(=O)O)NC(=O)[C@H](C)NC(=O)[C@@H](N)CSSC[C@@H](C(=O)O)NC(=O)[C@@H]2CCCN2C(=O)[C@@H]2CCCN2C(=O)[C@@H]2CCCN2C(=O)[C@@H]2CCCN2C(=O)[C@H](CCCCN)NC(=O)[C@H]([C@@H](C)O)NC(=O)[C@H](CCC(=O)O)NC(=O)[C@H](Cc2ccccc2)NC(=O)[C@H](Cc2ccccc2)NC(=O)[C@H](Cc2c[nH]c3ccccc23)NC(=O)[C@H](CCCNC(=N)N)NC(=O)[C@H](CCCCN)NC(=O)[C@H]([C@@H](C)O)NC(=O)[C@@H]2CCCN2C(=O)[C@H](CC(=O)O)NC1=O [Peptide 2] (HELM PEPTIDE1{C.A.E.L.P.A.L.D.P.T.K.R.W.F.F.E.T.K.P.P.P.P.C}$PEPTIDE1,PEPTIDE1,1:R3-23:R3$$$V2.0; N-terminus and C-terminus assumed)
IC50 (ER α; FIG. 2, read-out: IC50, binding to ER α): 100000 nM | IC50 to ERβ (ER β): none

Molecule: NCCCC[C@H](N)C(=O)N1CCC[C@H]1C(=O)N[C@@H](Cc1c[nH]c2ccccc12)C(=O)N[C@@H](Cc1ccccc1)C(=O)N[C@@H](Cc1ccccc1)C(=O)N[C@@H](CCC(=O)O)C(=O)O [Peptide 21, KPWFFE] (H-KPWFFE-OH)
recognition of / binding activity to estrogen receptor α (ER α): recognized | IC50 [1]: 45 nM | inhibition of the binding of estradiol ovalbumin europium conjugate to anti-E2 mAb clone 15 relative to peptides 1 and 2 [1]: one and half order of magnitude better | IC50 (ER β): > 500000 nM | recognition of / binding activity to estrogen receptor β (ER β): recognized

Molecule: C[C@]12CC[C@@H]3c4ccc(O)cc4CC[C@H]3[C@@H]1CC[C@@H]2O [Estradiol, estradiol]
Creatine kinase specific activity (Experimental/control), Aorta [2, 4]: 2.0 ± 0.18 | Creatine kinase specific activity (Experimental/control), Diapysis [2, 4]: 1.87 ± 0.1 | Creatine kinase specific activity (Experimental/control), Epipysis [2, 4]: 1.37 ± 0.07 | Creatine kinase specific activity (Experimental/control), Uterus [2, 4]: 1.37 ± 0.07

Molecule: O=C(c1ccc(OCCN2CCCCC2)cc1)c1c(-c2ccc(O)cc2)sc2cc(O)ccc12 [Raloxifene, raloxifene]
Creatine kinase specific activity (Experimental/control), Aorta [2, 4]: 1.63 ± 0.04 | Creatine kinase specific activity (Experimental/control), Diapysis [2, 4]: 1.75 ± 0.13 | Creatine kinase specific activity (Experimental/control), Epipysis [2, 4]: 1.41 ± 0.05 | Creatine kinase specific activity (Experimental/control), LV (left ventricle) [2, 4]: 1.34 ± 0.11 | Creatine kinase specific activity (Experimental/control), Uterus [2, 4]: 0.99 ± 0.17 | blocking of the increase in CK activity caused by estradiol or peptides 1 and 2 ([2]; rats treated with combination with raloxifene): blocked in all the tissues with the exception of the epiphysis

Molecule: WFFE [Peptide 46]
recognition of / binding activity to estrogen receptor α (ER α): did not show any inhibition

Molecule: C[C@H](N)C(=O)N[C@@H](CCCNC(=N)N)C(=O)N[C@@H](Cc1c[nH]c2ccccc12)C(=O)N[C@@H](Cc1ccccc1)C(=O)N[C@@H](Cc1ccccc1)C(=O)N[C@@H](CCC(=O)O)C(=O)O [Peptide A-43, ARWFFE] (H-ARWFFE-OH)
recognition of / binding activity to estrogen receptor α (ER α): recognized only the estrogen receptor α | IC50 [1]: 40 nM | inhibition of the binding of estradiol ovalbumin europium conjugate to anti-E2 mAb clone 15 relative to peptides 1 and 2 [1]: one and half order of magnitude better | inhibition of binding of estradiol ovalbumin europium conjugate to anti-estradiol mAb clone 15 [1]: showed inhibition | IC50 to ERβ (ER β): None | recognition of / binding activity to estrogen receptor β (ER β): not β

Molecule: NCCCC[C@H](N)C(=O)N[C@@H](CO)C(=O)N[C@@H](Cc1c[nH]c2ccccc12)C(=O)N[C@@H](Cc1ccccc1)C(=O)N[C@@H](Cc1ccccc1)C(=O)N[C@@H](CCC(=O)O)C(=O)O [Peptide 19, KSWFFE] (H-KSWFFE-OH; N-terminus and C-terminus assumed)
IC50 to ER α (ER α; Table 5): None | recognition of / binding activity to estrogen receptor α (ER α): did not show any binding activity | IC50 [1]: 40 nM | inhibition of the binding of estradiol ovalbumin europium conjugate to anti-E2 mAb clone 15 relative to peptides 1 and 2 [1]: one and half order of magnitude better | IC50 to ERβ (ER β): None | recognition of / binding activity to estrogen receptor β (ER β): did not show any binding activity

Molecule: C[C@H](NC(=O)[C@@H](N)CCCCN)C(=O)N[C@@H](Cc1c[nH]c2ccccc12)C(=O)N[C@@H](Cc1ccccc1)C(=O)N[C@@H](Cc1ccccc1)C(=O)N[C@@H](CCC(=O)O)C(=O)O [Peptide A-44, KAWFFE] (H-KAWFFE-OH)
IC50 (ER α; [3]): 250000 nM | recognition of / binding activity to estrogen receptor α (ER α): recognized | IC50 [1]: 40 nM | inhibition of the binding of estradiol ovalbumin europium conjugate to anti-E2 mAb clone 15 relative to peptides 1 and 2 [1]: one and half order of magnitude better | inhibition of binding of estradiol ovalbumin europium conjugate to anti-estradiol mAb clone 15 [1]: showed inhibition | IC50 (ER β): 250000 nM | recognition of / binding activity to estrogen receptor β (ER β): recognized

Molecule: CC(C)[C@H](N)C(=O)N[C@@H](CCCNC(=N)N)C(=O)N[C@@H](Cc1c[nH]c2ccccc12)C(=O)N[C@@H](Cc1ccccc1)C(=O)N[C@@H](Cc1ccccc1)C(=O)N[C@@H](CCC(=O)O)C(=O)O [Peptide 39, VRWFFE] (H-VRWFFE-OH)
IC50 (ER α; [3]): < 100000 nM | IC50 (ER β): < 100000 nM

Continued, values first:

IC50 to ER α (ER α; Table 5): None | recognition of / binding activity to estrogen receptor α (ER α): did not show any binding activity | IC50 [1]: 6 nM | inhibition of the binding of estradiol ovalbumin europium conjugate to anti-E2 mAb clone 15 relative to peptides 1 and 2 [1]: one and half order of magnitude better | IC50 to ERβ (ER β): None | recognition of / binding activity to estrogen receptor β (ER β): did not show any binding activity
Molecule: CC(C)[C@H](N)C(=O)N[C@@H](CCCNC(=N)N)C(=O)N[C@@H](Cc1c[nH]c2ccccc12)C(=O)N[C@@H](Cc1ccccc1)C(=O)N[C@@H](Cc1ccc(O)cc1)C(=O)N[C@@H](CCC(=O)O)C(=O)O [Peptide B35, VRWFYE] (H-VRWFYE-OH; N-terminus and C-terminus assumed)

IC50 (ER α; [3]): 250000 nM | recognition of / binding activity to estrogen receptor α (ER α): recognized | IC50 [1]: 6 nM | inhibition of the binding of estradiol ovalbumin europium conjugate to anti-E2 mAb clone 15 relative to peptides 1 and 2 [1]: one and half order of magnitude better | IC50 (ER β): 100000 nM | recognition of / binding activity to estrogen receptor β (ER β): recognized
Molecule: CC(C)[C@H](N)C(=O)N[C@@H](CO)C(=O)N[C@@H](Cc1c[nH]c2ccccc12)C(=O)N[C@@H](Cc1ccccc1)C(=O)N[C@@H](Cc1ccccc1)C(=O)N[C@@H](CCC(=O)O)C(=O)O [Peptide B34, VSWFFE] (H-VSWFFE-OH)

IC50 to ER α (ER α; Table 5): None | IC50 [1]: 20 nM | inhibition of the binding of estradiol ovalbumin europium conjugate to anti-E2 mAb clone 15 relative to peptides 1 and 2 [1]: one and half order of magnitude better | IC50 (ER β): 250000 nM | recognition of / binding activity to estrogen receptor β (ER β): recognized only the ERβ
Molecule: CC[C@H](C)[C@H](N)C(=O)N[C@@H](CCCNC(=N)N)C(=O)N[C@@H](Cc1c[nH]c2ccccc12)C(=O)N[C@@H](Cc1ccccc1)C(=O)N[C@@H](Cc1ccccc1)C(=O)N[C@@H](CCC(=O)O)C(=O)O [Peptide B37, IRWFFE] (H-IRWFFE-OH)

IC50 to ER α (ER α; Table 5): None | recognition of / binding activity to estrogen receptor α (ER α): did not show any binding activity | IC50 [1]: 40 nM | inhibition of the binding of estradiol ovalbumin europium conjugate to anti-E2 mAb clone 15 relative to peptides 1 and 2 [1]: one and half order of magnitude better | IC50 to ERβ (ER β): None | recognition of / binding activity to estrogen receptor β (ER β): did not show any binding activity
Molecule: CC(C)C[C@H](N)C(=O)N[C@@H](CCCNC(=N)N)C(=O)N[C@@H](Cc1c[nH]c2ccccc12)C(=O)N[C@@H](Cc1ccccc1)C(=O)N[C@@H](Cc1ccccc1)C(=O)N[C@@H](CCC(=O)O)C(=O)O [Peptide B38, LRWFFE] (H-LRWFFE-OH; N-terminus and C-terminus assumed)

IC50 to ER α (ER α; Table 5): None | recognition of / binding activity to estrogen receptor α (ER α): did not show any binding activity | IC50 [1]: 6 nM | inhibition of the binding of estradiol ovalbumin europium conjugate to anti-E2 mAb clone 15 relative to peptides 1 and 2 [1]: one and half order of magnitude better | IC50 to ERβ (ER β): None | recognition of / binding activity to estrogen receptor β (ER β): did not show any binding activity
Molecule: CC(C)[C@H](N)C(=O)N1CCC[C@H]1C(=O)N[C@@H](Cc1c[nH]c2ccccc12)C(=O)N[C@@H](Cc1ccccc1)C(=O)N[C@@H](Cc1ccccc1)C(=O)N[C@@H](CCC(=O)O)C(=O)O [Peptide B33, VPWFFE] (H-VPWFFE-OH; N-terminus and C-terminus assumed)
